Measured values reported in US20240058308A1, “TREATMENT AND PREVENTION OF DRY MACULAR DEGENERATION” (The Regents of the University of Michigan, priority 2021, published 2024).
Like-named read-outs stand apart in the source and are kept apart here.

Experiments:
[1] = tested on: primary human fetal RPE (hfRPE) culture; assay: Autophagy induction by LC3 lipidation (LC3-II/LC3-I ratio) on Western blot; assay type: cell-based; settings: 24 hours exposure, vs vehicle (DMSO)
Experimental: (§1) Cell cultures were exposed to each putative autophagy inducer at a concentration indicated in Table 1 for 24 hours, lysed with 36 μL of SDS sample buffer with β-mercaptoethanol, with 15 μg of lysate loaded on a 4-15% gradient gel followed by transfer to a PVDF membrane. Blots were incubated with 1:1000 of LC3A/B antibody (Cell Signaling Technology; #4108s, RRID:AB_2137703) overnight. Quantifying LC3-II/LC3-I ratio is a well-accepted method for det 306 ermining autophagy induction [Ref. 44; incorporated by reference in its entirety], and this ratio was quantified in a non-saturated, linear range using the Azure c500 Imaging System (Azure Biosystems, Dublin, CA, USA) and a combination of AzureSpot and ImageJ software. The data in FIG. 2A are not normalized, whereas the data in FIGS. 2b and 1c are normalized to the average combined value of the vehicle and drug groups within each experimental repeat. The extreme pigmentation of human fetal cultures, combined with the destruction of the LC3 epitope with melanin bleaching protocols, makes detection of LC3 by microscopy in hfRPE difficult. A range of LC3 staining and puncta quantification protocols specifically adapted to pigmented hfRPE culture were employed [Ref. 43; incorporated by reference in its entirety]. At least five fields of view were randomly chosen and analyzed per experimental replicate for LC3 immunocytochemistry.
To test for autophagy induction, lipidation of the core autophagy protein LC3 was measured by mobility shift on Western blots 24 hours after each compound was added to hfRPE cultures [Ref. 44; incorporated by reference in its entirety]. […] Of the more than 30 putative autophagy inducers tested, only five produced an increased ratio of LC3-II/LC3-I, consistent with increased autophagy (FIG. 2a).
Autophagy induction was measured by LC3-II/LC3-I Ratios on Western Blot (standard method for autophagy induction) (FIG. 18A-C). Drugs were applied to primary human RPE culture for 24 hours.

[2] = tested on: primary human fetal RPE (hfRPE) culture; assay: Autophagy induction by LC3 puncta formation (immunocytochemistry); assay type: cell-based; settings: 24 hours exposure
Experimental: as §1
Autophagy induction was confirmed by assaying the formation of LC3-positive puncta (autophagosomes) by immunocytochemistry [Ref. 44; incorporated by reference in its entirety]. Puncta formation was quantified in automated/unbiased fashion using a customized macro in the Fiji/ImageJ platform [Ref. 43; incorporated by reference in its entirety].
Autophagy induction was measured by LC3 puncta on immunocytochemistry (standard method for autophagy induction) (FIG. 19). Drugs applied to primary human RPE culture for 24 hours.

[3] = tested on: primary human fetal RPE (hfRPE) culture; assay: Autophagy flux assay with NH4Cl lysosomal alkalinization; assay type: cell-based; settings: inducer 22.5 hours, then 25 mM NH4Cl for final 1.5 hours
Experimental: Cultures were exposed to compounds or vehicle (DMSO) for 24 hours. […] (C) Autophagy flux assays. After application of inducers or vehicle (DMSO) for 22.5 hours, 25 mM of NH4Cl, a lysosomal alkalizing agent, or H2O were added for a final 1.5 hours to inhibit autophagy flux.
Increases in both LC3 lipidation and autophagosome formation could result from downstream blockade of autophagy at the lysosome.

primary hfRPE culture [4] = assay: Trans-epithelial electrical resistance (TEER), tight-junction integrity; assay type: cell-based
Experimental: (§2) TEER and cell death were measured [Ref 51; incorporated by reference in its entirety]. For cell death assays, maximum possible LDH release per Transwell was measured immediately after 2 μL of the final experimental supernate was taken. The Transwell and supernate was then treated with 0.2% Triton X-100 for 15 minutes at 37° C. followed by collection of an additional 2 μL of supernate. Each experimental LDH release value was first normalized to total LDH release from the vehicle condition. Additionally, all TEER and LDH release measurements were normalized to the vehicle group at the zero-hour timepoint.
(§3) To evaluate the safety of D4476 and FLBZ, trans-epithelial electrical resistance (TEER) was measured, a measure of tight-junction integrity, in RPE cultures after prolonged exposure to each compound. As well-formed tight-junctions require myriad cell processes to be optimally coordinated, assessing TEER provides an easily measurable, ongoing, and noninvasive marker for general RPE cell health [Ref. 45; incorporated by reference in its entirety]. […] Lactate dehydrogenase (LDH) release, a combined marker of necrotic and late-stage apoptotic cell death [Refs. 47,48; incorporated by reference in their entireties], was reduced compared to vehicle for all four verified RPE autophagy inducers (FIG. 3b). Exposure of RPE cultures to the oxidant tert-butyl hydroperoxide confirmed the ability of the assay to detect cell death (FIG. 10).
Transepithelial Electrical Resistance (TEER) was tested (FIGS. 16 and 17). TEER is a sensitive measure of toxicity (lower the TEER, the more toxic the drug is). Drugs were added daily and measurements made daily for at least 4-8 days.

primary hfRPE culture [5] = assay: Outer segment (OS) phagocytosis efficiency (rhodopsin disappearance); settings: bovine outer segments, pulse-only method
Experimental: (§4) Phagocytosis assays using bovine outer segments was performed using the “pulse-only” method [Ref 43; incorporated by reference in its entirety]. Values at the zero-hour timepoint were used for normalization.

primary hfRPE culture [6] = tested on: primary hfRPE culture
Experimental: as §4

primary hfRPE culture [7] = assay: Undigestible autofluorescent material (UAM) accumulation, elimination and granule size after oxOS feedings; assay type: cell-based, human; settings: fed daily with oxOS over a month; FLBZ 12 μM, Torin 1 μM; vs vehicle
RPE of mouse eye = assay: Intravitreal injection in mouse eyes, autophagy by LC3II/LC3I ratio of lysates; assay type: in vivo; settings: four concentrations up to 500 uM, multiple timepoints, DMSO in other eye
Experimental: Experiments were conducted during development of embodiments herein to assay for autophagy in the mouse eye. Experiments were conducted to measure autophagy by giving an intraperitoneal injection of leupeptin, followed by assaying for LC3 puncta in an RPE flatmount of a GFP-LC3 mouse. Background from GFP-LC3 debris deposited on the RPE when the retina was peeled off for the flat mount prevented signal detection. A biochemical assay was then employed for autophagy induction, measuring an increase in the lipidation of the autophagy core protein LC3 (lipidated LC3=LC3-II, unlipidated LC3=LC3-I, so higher LC3-II/LC3-I ratio indicates autophagy induction). Sufficient signal as obtained. […] Harvesting techniques were also optimized for collecting RPE from mouse eyes.
Experiments were conducted during development of embodiments herein to establish a positive control for autophagy induction. […] Autophagy induction was measured at 4 different concentrations of Torin (500 nm, 5 um, 50 um, 500 um) and at 5 different timepoints after injection (1 day, 3 days, 7 days, 14 days, 28 days). […] Nevertheless, the ability of intravitreal injections of FLBZ to induce autophagy in the RPE was assessed. In preparation for injecting FLBZ intravitreally into mice, solubility assays were performed and the maximum amount of FLBZ that can be injected without it crashing out of solution in the vitreous was determined. […]

RPE from mouse eyecups = assay: Ex vivo mouse eyecup autophagy induction (LC3II/LC3I ratio); settings: mouse RPE/choroid eyecup, 24 hours; Torin 1-5 uM, FLBZ 12-60 uM
Experimental: FIG. 14. Effect of autophagy positive control Torin on RPE from mouse eyecups (DMSO as control). […] Mouse eyes were enucleated, the anterior segment vitreous, and retina were removed, leaving an eyecup with RPE/choroid exposed. […] RPE/Choroid eyecup was treated with 1 uM Torin1 in our previously established RPE cell culture media for 24 hours. n=4.
FIG. 15. Effect of Flubendazole on RPE from Mouse Eyecups (DMSO as control). Conditions with and without ammonium chloride (NH4Cl) help establish high autophagy flux rates. If true autophagy flux is happening, the LC3II/LC3I ratio should increase further upon addition of NH4Cl, as is the case here. DMSO− and FLBZ−, n=6, FLBZ+ and DMSO+ n=5. Flubendazole tested at 60 uM, lysates collected after 24 hours. Induction did occur in eyecups.
Given the inconsistent results with detecting autophagy induction using intravitreal injection of the positive control, Torin, experiments were conducted to determine whether the lack of responsiveness to intravitreal injections was a drug access issue or whether it was a species or animal vs. culture difference. Additional experiments utilized freshly isolated mouse eyecups with the retina removed to determine whether Torin (and FLBZ) induce autophagy in this context. […] The use of ammonium chloride in these experiments blocks lysosomal degradation.

[8] = Solubility assays of DMSO stock mixed with PBS (simulating the vitreous); assay type: physicochemical; settings: Torin 1 mM stock mixed 1:1 with PBS; flubendazole 3 mM stock
Experimental: Experiments were conducted during development of embodiments herein to establish a positive control for autophagy induction. The direct mTOR inhibitor Torin1 was selected over rapamycin/sirolimus as the positive control, based on the capacity of Torin1 to induce autophagy in primary culture more strongly and more consistently than rapamycin. The experimental set-up involved injecting one eye with Torin and the other eye with the DMSO vehicle. Autophagy induction was measured at 4 different concentrations of Torin (500 nm, 5 um, 50 um, 500 um) and at 5 different timepoints after injection (1 day, 3 days, 7 days, 14 days, 28 days). […] Nevertheless, the ability of intravitreal injections of FLBZ to induce autophagy in the RPE was assessed. In preparation for injecting FLBZ intravitreally into mice, solubility assays were performed and the maximum amount of FLBZ that can be injected without it crashing out of solution in the vitreous was determined. […] This helped inform maximal concentrations of flubendazole that could be injected intravitreally. Four different concentrations were injected, up to the maximum solubility of FLBZ, and autophagy induction was assayed over a timeframe ranging from 1 week to 4 weeks after injection.

primary hfRPE culture [9] = assay: Cytotoxicity by LDH release; assay type: cell-based, human; settings: 24 hours exposure
Experimental: as §2
as §3, with “Exposure of RPE cultures to the oxidant tert-butyl hydroperoxide confirmed the ability of the assay to detect cell death (FIG. 10).” left out

[10] = prolonged exposure, drug or vehicle (DMSO) replaced daily

Row | SMILES | LC3-II/LC3-I ratio (autophagy induction) [1] | LC3 puncta formation (autophagy induction) [2] | Autophagy flux: LC3-II/LC3-I ratio after NH4Cl [3] | TEER (toxicity), Example 3 (primary hfRPE culture [4]) | also measured
1 | CCCCc1oc2ccccc2c1C(=O)c1cc(I)c(OCCN(CC)CC)c(I)c1 [Amiodarone] | Induction of autophagy | – | – | – | –
2 | NC(=O)c1ccc(-c2nc(-c3ccc4c(c3)OCCO4)c(-c3ccccn3)[nH]2)cc1 [D4476] | Induction of autophagy | induced autophagy | induces autophagy flux | – | TEER (tight-junction integrity) (primary hfRPE culture [4]; [10]): more modest impact; OS phagocytosis efficiency / OS degradative capacity (primary hfRPE culture [5]): no effect on OS degradative capacity
3 | O=C1NC(=O)/C(=C/c2ccc3nccc(-c4ccncc4)c3c2)S1 [GSK, GSK 1059615] | upregulate autophagy | induced autophagy | induces autophagy flux | – | TEER (tight-junction integrity) (primary hfRPE culture [4]; [10]): dramatically reduced TEER; OS phagocytosis efficiency / OS degradative capacity (primary hfRPE culture [6]): reduces phagocytosis efficiency
4 | CC(C)(Sc1ccc(CCN(CCCCC2CCCCC2)C(=O)NC2CCCCC2)cc1)C(=O)O [GW7647] | Induction of autophagy | – | – | – | –
5 | O=C(NCC1(N2CCN(c3ccccc3)CC2)CCOCC1)c1cccnc1Sc1ccccc1 [JNJ, JNJ-47965567] | Induction of autophagy | – | – | – | –
6 | CCC(=O)N1CCN(c2ccc(-n3c(=O)ccc4cnc5ccc(-c6cnc7ccccc7c6)cc5c43)cc2C(F)(F)F)CC1 [Torin, Torin1] | upregulate autophagy | induced autophagy | induces autophagy flux | – | TEER (tight-junction integrity) (primary hfRPE culture [4]): dramatically reduced TEER; UAM accumulation, drug fed concurrently with oxOS (primary hfRPE culture [7]): more UAM accumulation; Autophagy induction in RPE after intravitreal injection (LC3II/LC3I ratio) (RPE of mouse eye): No concentration or time after injection provided convincing evidence for replicable autophagy induction; Autophagy induction in eyecups (LC3II/LC3I ratio) (RPE from mouse eyecups): induces autophagy well; Precipitation of DMSO stock solution when mixed with PBS [8]: did not crash out; OS phagocytosis efficiency / OS degradative capacity (primary hfRPE culture [6]): reduces phagocytosis efficiency
7 | COc1cc2c(Oc3ccc4[nH]c(C)cc4c3F)ccnc2cc1OCC1(N)CC1 [anlotinib] | evidence for autophagy induction | confirming autophagy induction | – | No toxicity is observed | –
8 | N#CC1(c2ccc(NC(=O)c3cccnc3NCc3ccncc3)cc2)CCCC1 [apatinib] | evidence for autophagy induction | confirming autophagy induction | – | No toxicity is observed | –
9 | CCN(CC)CCNC(=O)c1c(C)[nH]c(/C=C2\C(=O)Nc3ccc(F)cc32)c1C [sunitinib] | – | – | – | No toxicity is observed | –
10 | CC(C)(C)OO [tBHP, tert-butyl hydroperoxide] | – | – | – | – | LDH release after oxidant exposure (assay validation) (primary hfRPE culture [9]): marked increase in LDH release
